Test: Placebo-controlled trial in early stage idiopathic Parkinson's disease: rotigotine plasma concentrations during titration and maintenance (Example 5)
Format: in vivo, human
Conditions: for rotigotine plasma concentration, Max / rotigotine plasma concentration, Mean / rotigotine plasma concentration, Median / rotigotine plasma concentration, Min: prior removal
Excerpt: Trial periods consisted of a 4-week pre-treatment (washout) period, a 3-week dose escalation period, a 25-week dose maintenance period, and a 4-week follow-up period for a total duration of 36 weeks.

[1] = Day 1 MP (maintenance period), 13.5 mg/day
[2] = Day 15 TP (titration period), 9.0 mg/day
[3] = Day 57 MP (maintenance period), 13.5 mg/day
[4] = Day 113 MP (maintenance period), 13.5 mg/day
[5] = End of MP (maintenance period), 13.5 mg/day

CCCN(CCc1cccs1)[C@H]1CCc2c(O)cccc2C1 [rotigotine, (6S)-6{propyl[2-(2-thienyl)ethyl]amino}-5,6,7,8-tetrahydro-1-naphthalenol]
rotigotine plasma concentration, Max [1]: 2.130 ng/mL | rotigotine plasma concentration, Mean [1]: 0.757 ng/mL | rotigotine plasma concentration, Median [1]: 0.714 ng/mL | rotigotine plasma concentration, Min [1]: 0.064 ng/mL | rotigotine plasma concentration, Max [2]: 1.580 ng/mL | rotigotine plasma concentration, Mean [2]: 0.508 ng/mL | rotigotine plasma concentration, Median [2]: 0.435 ng/mL | rotigotine plasma concentration, Min [2]: 0.053 ng/mL | rotigotine plasma concentration, Max [3]: 2.070 ng/mL | rotigotine plasma concentration, Mean [3]: 0.824 ng/mL | rotigotine plasma concentration, Median [3]: 0.702 ng/mL | rotigotine plasma concentration, Max [4]: 2.420 ng/mL | rotigotine plasma concentration, Mean [4]: 0.825 ng/mL | rotigotine plasma concentration, Median [4]: 0.713 ng/mL | rotigotine plasma concentration, Min [4]: 0.122 ng/mL | rotigotine plasma concentration, Max [5]: 1.800 ng/mL | rotigotine plasma concentration, Mean [5]: 0.788 ng/mL | rotigotine plasma concentration, Median [5]: 0.729 ng/mL | rotigotine plasma concentration, Min [5]: 0.282 ng/mL | rotigotine plasma concentration over the maintenance phase (FIG. 10): stable concentration

— patent US20060216336A1, “Transdermal therapeutic system for Parkinson's Disease” (priority 2002, published 2006)
